Data set [1] deals with MTAP-competent SK-MES-1 non-small cell lung cancer cells. Put plainly: MTT growth inhibition by Compound 7 with and without MTA. It counts as cell-based, human. How it is done:
All cell lines were purchased from the American Type Culture Collection. All cultures were maintained at 37° C., in 5% air-CO2 atmosphere in a humidified incubator.
Cells were plated in columns 2-12 of a 96-well microtiter plate, with column 2 designated as the vehicle control. The same volume of medium was added to column 1. Column 1 was designated as the media control. After a 4-hour incubation, the cells were treated with Compound 7, with or without a non-growth inhibitory concentration of MTA, in quadruplicate wells. […] MTT (4,5-dimethylthiazol-2-yl)-2,5-diphenyl tetrazolium bromide; Sigma, St. Louis, Mo.) was added to a final concentration of 0.25-1 mg/ml in each well, and the plates were incubated for 4 hours. The liquid was removed from each well. DMSO was added to each well, then the plates were vortexed slowly in the dark for 7-20 minutes. The formazin product was quantified spectrophotometrically at […] on a Molecular Devices Vmax™ kinetic microplate reader.

The conditions of data set [2]: mouse, in vivo. As for the experimental part:
A series of experiments were undertaken in order to evaluate the in vivo effect of schedule of administration of MTA on reduction of […] induced by […]. BALB/c/nu/nu female mice were housed 3 per cage with free access to food and water. Mice were fed a folate-deficient chow (#Td84052, Harlan-Teklad, Madison, Wis.) for at least 14 days prior to initiation of drug treatment and continuing throughout the study. Animal weight loss, which is a measure of toxicity, was recorded at least daily for 18 days at the same time of day. Table 11 presents a summary of data from multiple experiments, i.e., at least two experiments for each schedule. […] To produce this effect, MTA must be administered at the beginning of treatment with Compound 7 and continuing until after treatment with Compound 7. Further, since the activity of Compound 7 continues for at least a few days after the last dose was administered, to produce an effect MTA must be administered during this period of activity, i.e. for at least 2 days after the last dose of the cytotoxic was administered.

Another data set addresses T1, GARFT (Homo sapiens, UniProt P22102).
T1 construct: The GART domain (residues 808-1010) of the trifunctional human GARS-AIRS-GART enzyme was purified; made in house
The following applies: read-out: Ki (GARFT inhibitor); cited from earlier work.

Data set [3] relates to human pancreatic BxPC-3 tumor. Put plainly: antitumor activity in MTAP-deficient xenograft model. It counts as in vivo, mice. The text has this:
(§1) To evaluate the in vivo effect of combination therapy on known human MTAP-deficient tumors, an MTAP-deficient cell line was introduced to mice to produce xenograft MTAP-deficient tumors. 108 BALB/c/nu/nu female mice bearing subcutaneous tumor fragments produced from the MTAP-deficent BxPC-3 cell line were housed 3 per cage with free access to food and water. Mice were fed a folate-deficient chow (#Td84052, Harlan Teklad, Madison, Wis.) beginning 14 days prior to initiation of drug treatment and continuing throughout the study. After randomization by tumor volume into 8 treatment groups and assigning the remaining 12 mice to group 7, beginning on the twenty-first day after tumor implant mice were dosed with Compound 7 daily for 4 days, and with MTA or vehicle twice-a-day for 8 days, in the amounts indicated in Table 7 below. The vehicle for both compounds was 0.75% sodium bicarbonate in water (7.5% NaHCO3 solution (Cellgro #25-035-4, Mediatech, Herndon, Va.) diluted 1:10 in sterile water for injection (Butler, Columbus, Ohio)) under pH adjusted to 7.0-7.4. Solutions were sterilized by filtration through 0.22 micron polycarboniate filters (Cameo 25GAS, Micron Separations Inc., Westboro, Mass.). Tumor volumes and animal weight loss, which is an indicator of toxicity, were recorded daily for 14 days at the same time of day, then on a Monday, Wednesday, Friday schedule for the remainder of the study.

The target of data set [4] is T2, human membrane folate-binding protein (mFBP) (Homo sapiens, UniProt P15328).
T2 construct: mFBP prepared from cultured KB cells (human nasopharyngeal carcinoma cells); endogenous in cells
T2 sequence (P15328 25-234): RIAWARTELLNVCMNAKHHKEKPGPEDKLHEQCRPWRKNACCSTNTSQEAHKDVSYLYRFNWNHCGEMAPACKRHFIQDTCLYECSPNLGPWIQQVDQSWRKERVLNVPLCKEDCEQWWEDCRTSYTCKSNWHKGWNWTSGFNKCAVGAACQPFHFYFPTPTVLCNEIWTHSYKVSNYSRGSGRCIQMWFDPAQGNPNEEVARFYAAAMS
Put plainly: competitive binding assay against 3H-folic acid with mFBP prepared from KB cells. The source says:
The dissociation constant (Kd) of the preferred inhibitors of the present invention for human membrane folate-binding protein (mFBP) can be determined in a competitive binding assay using mFBP prepared from cultured KB cells (human nasopharyngeal carcinoma cells) as disclosed in U.S. Pat. No. 5,646,141, the disclosures of which is hereby incorporated by reference in its entirety.
Human membrane folate binding protein can be obtained from KB cells by methods well known in the art. KB cells are washed, sonicated for cell lysis and centrifuged to form pelleted cells. The pellet can then be stripped of endogenous bound folate by resuspension in acidic buffer (KH2PO4—KOH and 2-mercaptoethanol) and centrifuged again. The pellet is then resuspended and the protein content quantitated using the Bradford method with bovine serum albumin (BSA) as standard.
Disassociation constants are determined by allowing, the test inhibitor to compete against ^3H-folic acid for binding to mFBP. Reaction mixtures are designed to generally contain mFBP, ^3H-folic acid, and various concentrations of the subject test inhibitor in acidic buffer (KH2PO4—KOH and 2-mercaptoethanol). The competition reaction is typically conducted at 25°. Because of the slow nature of release of bound ^3H-folic acid, the test inhibitor may be prebound prior to addition of bound ^3H-folic acid, after which the reaction should be allowed to equilibriate. The full reaction mixtures then should be drawn through nitrocellulose filters to isolate the cell membranes with bound ^3H-folic acid. The trapped mFBP are then washed and measured by scintillation counting. The data can then be nonlinearly fitted as described above in determining Ki. The mFBP Kd for ^3H-folic acid, used for calculating the competitor Kd, can be obtained by directly titrating mFBP with ^3H-folate. The mFBP Kd can then be used to calculate the competitor Kd by nonlinear fitting of the data to an equation for tight-binding Kc. Table 1 below provides the Kd values of several GARFT inhibitors using the assay described above.

A short description of data set [5]: animal weight loss (toxicity) in BxPC-3 xenograft study. It counts as in vivo. The following applies: 40 mg/kg Compound 7 plus 50 mg/kg MTA versus 2.5 mg/kg Compound 7 alone, folate-deficient diet.
Text: as §1, with “Solutions were sterilized by filtration through 0.22 micron polycarboniate filters (Cameo 25GAS, Micron Separations Inc., Westboro, Mass.).” left out

The target of data set [6] is T2, human membrane folate-binding protein (mFBP). The following applies: relative to lometrexol; cited from earlier work.

Molecules are shown by their SMILES. Where two headings read alike, the source gives them in different places.

T1 sequence (P22102 808-1010): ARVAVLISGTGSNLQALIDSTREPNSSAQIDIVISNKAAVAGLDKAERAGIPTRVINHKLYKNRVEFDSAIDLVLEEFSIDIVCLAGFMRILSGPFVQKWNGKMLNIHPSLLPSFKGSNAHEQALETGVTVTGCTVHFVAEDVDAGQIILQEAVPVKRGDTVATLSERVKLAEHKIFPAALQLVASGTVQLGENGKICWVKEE

With `Cc1cc(C(=O)N[C@@H](CCC(=O)O)C(=O)O)sc1CC[C@@H]1CNc2nc(N)[nH]c(=O)c2C1` (single isomer, unassigned) [Compound 7], the “cell growth inhibition as a single agent” value in data set [1] (SK-MES-1, 168 h, FIG. 3) was “fully inhibited cell growth”. Also, the “cell number at the highest concentration of Compound 7 tested” value in data set [1] (with 10 μM MTA, up to approximately 60 times the IC50 of Compound 7) is “about 75 % of control”. Moreover, the “Increase in Compound 7 maximum tolerated dose (-fold dose)” value in data set [2] (female, BALB/c/nu/nu) is recorded as 4 -fold dose; in data set [2], “None”. Besides, the Ki at GARFT is 0.5 nM. The entries for the “Time to 1000 mm^3 (days) Mean” value in data set [3] (2.5 mg/kg Compound 7 qd x4), in data set [3] (5 mg/kg Compound 7 qd x4) and in data set [3] (10 mg/kg Compound 7 qd x4) were 32.3 days, 32.1 days and 34.0 days, respectively. The “Time to 1000 mm^3 (days) Median” value in data set [3] (2.5 mg/kg Compound 7 qd x4) came out at 32.4 days; in data set [3] (5 mg/kg Compound 7 qd x4) it was 32.4 days; in data set [3] (10 mg/kg Compound 7 qd x4), 33.4 days; in data set [3] (20 mg/kg Compound 7 qd x4) it was 36.4 days. Moreover, the “increase of therapeutic window” value in data set [3] (MTA twice a day 8 days, Compound 7 daily 4 days, nu/nu tumor-bearing mice, folate-deficient diet) stood at 16 fold. For the same compound, in data set [4], the Kd came to 290 nM. In addition, the “reduction in toxicity (weight loss)” value in data set [5] worked out at 16 fold. Further, the “binds less tightly than lometrexol to mFBP” value in data set [6] is recorded as “about 1400 fold”.

By Ki is commonly meant the dissociation constant of the complex between target and ligand, obtained from inhibition or displacement. The Kd is the concentration at which binding is half-saturated. A lower Kd goes with tighter binding.

Values taken from patent US20040043959A1, “Combination therapies for treating methylthioadenosine phosphorylase deficient cells” (priority 2002, published 2004).
